Experimental data as given in US8735071B2, “Compositions for promoting epigenetic DNA demethylation and methods of use therefore” (The Johns Hopkins University, priority 2008, dated 2014).

Tests used:
[1] = test system: Gadd45b; conditions: CPP 10 mg/kg i.p. at 1 hr before ECT; 1 hr after ECT; FIG. 2E
Method: (§1) Electroconvulsive treatment (ECT) was administered with pulses consisted of 1.0 s, 100 Hz, 18 mA stimulus of 0.3 ms delivered using the Ugo Basile ECT unit (Model 57800) as previously described (A. J. Cole, Neurochem 55, 1920 (1990)). […] S ham animals were similarly handled in parallel without the current delivery. In some experiments, ±3-(2-carboxypiperazin-4-yl)-propyl-1-phosphonic acid (CPP, 10 mg/kg body weight, i.p.), was injected at 1 hr before ECT. Potential damaging responses after ECT was examined by Western blot and immunostaining of the activated form of caspase (Caspase 3-a; Rabbit; 1:500; Cell Signaling) and phospho-ATM (Ataxia telangiectasia mutated kinase; mouse; Millipore) (3).
(§2) Dentate gyrus tissue was rapidly micro-dissected from adult WT mice, or with ECT, spatial exploration or running. […] For gene expression analysis, total RNA fraction was immediately isolated after dissection (Qiagen), treated with DNAase and reverse-transcribed into the first-strand cDNA (Invitrogen). Specific primers (listed in Table 1) were used in SYBR-green based quantitative real-time PCR to measure the expression level of target genes with the ΔΔT method (ABI). Most primers were designed to span introns to further prevent genomic DNA amplification during the PCR reaction.

[2] = test system: Arc; conditions: CPP 10 mg/kg i.p. at 1 hr before ECT; 1 hr after ECT; FIG. 2E
Method: as §1, §2

[3] = test system: Gadd45b expression; experiment: Gadd45b expression in cultured primary hippocampal neurons by Q-PCR; format: cell-based, mice; conditions: for Gadd45b expression: agent alone, K^+ 50 mM, APV 200 μM, bicuculline 50 μM, FIG. 5A, 5C; for K^+-induced Gadd45b expression: pretreated 0.5 hr, then K^+ (50 mM) for 1 hr, BAPTA 50 μM, Nimodipin 10 μM, KN93 or KN92 10 μM, FIG. 5B
Description: as §2
Primary hippocampal neurons were prepared from hippocampi of P0 mice and plated on poly-lysine coated coverslips in Neurobasal-A medium supplemented with B27 (Invitrogen) as previously described (H. Song, C. F. Stevens, F. H. Gage, Nature 417, 39 (2002)). AraC (5 μM) was added to eliminate proliferating cells. One-week old culture was used for all experiments. For pharmacological experiments, cultures were pretreated with the following inhibitors 30 minutes before stimulation with K^+ (50 mM) or glutamate (20 μM) for 1 hr: BAPTA (50 μM), Nimodipin (10 μM), APV (200 μM), bicuculline (50 μM), KN92 or KN93 (10

[4] = test system: adult neural progenitors; experiment: Proliferation of adult hippocampal neural progenitors in culture; format: cell-based, rat; conditions: FGF-1 0, 2, 5, 10 and 20 ng/ml versus FGF-2 20 ng/ml; cell number at 4 days in vitro; FIG. 23
Method: Established neural progenitors from adult rat hippocampus were cultured as monolayer as previously described (H. Song, C. F. Stevens, F. H. Gage, Nature 417, 39 (2002).). They were maintained on laminin and polyornithine-coated dishes in DMEM/F12 medium containing N2 supplement, L-glutamine (2 mM) and FGF-2 (20 ng/ml). Cultures were passaged for expansion when reaching 70% confluence. For FGF-1 experiments, early-passage, monolayer adherent cultures were plated at the clonal density in the presence of various concentration of FGF-1 or FGF-2 (PeproTech). At 4 days in vitro, cultures were fixed and cell numbers from each condition were determined by counting from randomly selected fields of 4 different biological replicates.

| Compound | Gadd45b expression ([3]; glutamate 20 μM) | K^+-induced Gadd45b expression [3] | other results |
| --- | --- | --- | --- |
| O=C(O)C1CN(CCCP(=O)(O)O)CCN1 (racemic) [CPP, ±3-(2-carboxypiperazin-4-yl)-propyl-1-phosphonic acid] | – | – | ECT-induced Gadd45b expression [1]: abolished; ECT-induced Arc expression [2]: abolished |
| N[C@@H](CCCP(=O)(O)O)C(=O)O [APV] | significantly decreased | – | glutamate-induced Gadd45b expression ([3]; APV 200 μM pre-treatment, glutamate 20 μM, FIG. 5C): blocked |
| O=C(O)CN(CC(=O)O)c1ccccc1OCCOc1ccccc1N(CC(=O)O)CC(=O)O [BAPTA] | – | abolished | – |
| COc1ccc(S(=O)(=O)Nc2ccccc2CN(C)C/C=C/c2ccc(Cl)cc2)cc1 [KN92] | – | not | – |
| COc1ccc(S(=O)(=O)N(CCO)c2ccccc2CN(C)C/C=C/c2ccc(Cl)cc2)cc1 [KN93] | – | abolished | – |
| [Cl-].[K+] [K^+] | significant increase | – | – |
| COCCOC(=O)C1=C(C)NC(C)=C(C(=O)OC(C)C)C1c1cccc([N+](=O)[O-])c1 (centres unmarked) [Nimodipin] | – | abolished | – |
| N[C@@H](CCC(=O)O)C(=O)O [glutamate] | induced | – | – |
| FGF-1: fibroblast growth factor-1 (PeproTech) | – | – | mitogenic activity on neural progenitor proliferation in vitro [4]: robust mitogenic activity |
